Publication PMC6154583, “Optimized 4,5-Diarylimidazoles as Potent/Selective Inhibitors of Protein Kinase CK1δ and Their Structural Relation to p38α MAPK” (Molecules : A Journal of Synthetic Chemistry and Natural …, 2017)

How the values were obtained:
CDK9/CycK = CDK9/CycK (Homo sapiens, UniProt P50750); assay: ProQinase 33PanQinase selectivity profiling; format: biochemical; conditions: 100 nM, relative to control, read-out: Residual activity (%)
Aurora-C = biological target: T1, Aurora-C (Homo sapiens, UniProt Q9UQB9); assay: ProQinase 33PanQinase selectivity profiling; format: biochemical; conditions: 100 nM, relative to control, read-out: Residual activity (%)
T1 construct: purchased ProQinase GmbH (Freiburg, Germany)

CLK4 = CLK4 (Homo sapiens, UniProt Q9HAZ1); assay: ProQinase 33PanQinase selectivity profiling; format: biochemical; conditions: 100 nM, relative to control, read-out: Residual activity (%)
CDK1/CycE1 = CDK1/CycE1 (Homo sapiens, UniProt P06493); assay: ProQinase 33PanQinase selectivity profiling; format: biochemical; conditions: 100 nM, relative to control, read-out: Residual activity (%)
B-RAF = B-RAF (Homo sapiens, UniProt P15056); assay: ProQinase 33PanQinase selectivity profiling; format: biochemical; conditions: 100 nM, relative to control, read-out: Residual activity (%)
Sequence of B-RAF (P15056 whole entry): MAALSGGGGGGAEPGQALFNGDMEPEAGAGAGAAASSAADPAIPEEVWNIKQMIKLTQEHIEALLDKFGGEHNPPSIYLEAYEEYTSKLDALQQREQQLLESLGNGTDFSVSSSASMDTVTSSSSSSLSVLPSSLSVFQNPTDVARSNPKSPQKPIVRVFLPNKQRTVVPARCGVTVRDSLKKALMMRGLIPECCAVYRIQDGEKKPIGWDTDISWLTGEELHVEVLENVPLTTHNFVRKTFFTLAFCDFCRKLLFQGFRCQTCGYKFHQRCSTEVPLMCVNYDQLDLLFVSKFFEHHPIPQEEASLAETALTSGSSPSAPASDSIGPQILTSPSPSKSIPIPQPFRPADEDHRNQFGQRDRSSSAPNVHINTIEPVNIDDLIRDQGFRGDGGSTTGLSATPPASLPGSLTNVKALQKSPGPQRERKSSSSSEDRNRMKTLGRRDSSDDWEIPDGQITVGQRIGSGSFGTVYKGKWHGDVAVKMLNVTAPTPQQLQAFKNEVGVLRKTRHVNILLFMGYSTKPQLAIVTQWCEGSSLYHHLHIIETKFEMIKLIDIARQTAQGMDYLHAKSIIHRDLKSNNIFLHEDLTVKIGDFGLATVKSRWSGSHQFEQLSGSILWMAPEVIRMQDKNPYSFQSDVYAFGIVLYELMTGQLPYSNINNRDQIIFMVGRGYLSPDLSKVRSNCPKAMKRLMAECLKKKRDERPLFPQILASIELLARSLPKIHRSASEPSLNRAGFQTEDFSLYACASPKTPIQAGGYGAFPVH

DAPK1 = DAPK1 (Homo sapiens, UniProt P53355); assay: ProQinase 33PanQinase selectivity profiling; format: biochemical; conditions: 100 nM, relative to control, read-out: Residual activity (%)
CAMK2B = CAMK2B (Homo sapiens, UniProt Q13554); assay: ProQinase 33PanQinase selectivity profiling; format: biochemical; conditions: 100 nM, relative to control, read-out: Residual activity (%)
CAMK2D = CAMK2D (Homo sapiens, UniProt Q13557); assay: ProQinase 33PanQinase selectivity profiling; format: biochemical; conditions: 100 nM, relative to control, read-out: Residual activity (%)
AXL = biological target: T2, AXL (Homo sapiens, UniProt P30530); assay: ProQinase 33PanQinase selectivity profiling; format: biochemical; conditions: 100 nM, relative to control, read-out: Residual activity (%)
T2 construct: purchased ProQinase GmbH (Freiburg, Germany)

CDK1/CycB1 = CDK1/CycB1 (Homo sapiens, UniProt P06493); assay: ProQinase 33PanQinase selectivity profiling; format: biochemical; conditions: 100 nM, relative to control, read-out: Residual activity (%)
CDK2/CycA2 = CDK2/CycA2 (Homo sapiens, UniProt P24941); assay: ProQinase 33PanQinase selectivity profiling; format: biochemical; conditions: 100 nM, relative to control, read-out: Residual activity (%)
DYRK2 = DYRK2 (Homo sapiens, UniProt Q92630); assay: ProQinase 33PanQinase selectivity profiling; format: biochemical; conditions: 100 nM, relative to control, read-out: Residual activity (%)
CDK8/CycC = CDK8/CycC (Homo sapiens, UniProt P49336); assay: ProQinase 33PanQinase selectivity profiling; format: biochemical; conditions: 100 nM, relative to control, read-out: Residual activity (%)
Sequence of CDK8/CycC (P49336 whole entry): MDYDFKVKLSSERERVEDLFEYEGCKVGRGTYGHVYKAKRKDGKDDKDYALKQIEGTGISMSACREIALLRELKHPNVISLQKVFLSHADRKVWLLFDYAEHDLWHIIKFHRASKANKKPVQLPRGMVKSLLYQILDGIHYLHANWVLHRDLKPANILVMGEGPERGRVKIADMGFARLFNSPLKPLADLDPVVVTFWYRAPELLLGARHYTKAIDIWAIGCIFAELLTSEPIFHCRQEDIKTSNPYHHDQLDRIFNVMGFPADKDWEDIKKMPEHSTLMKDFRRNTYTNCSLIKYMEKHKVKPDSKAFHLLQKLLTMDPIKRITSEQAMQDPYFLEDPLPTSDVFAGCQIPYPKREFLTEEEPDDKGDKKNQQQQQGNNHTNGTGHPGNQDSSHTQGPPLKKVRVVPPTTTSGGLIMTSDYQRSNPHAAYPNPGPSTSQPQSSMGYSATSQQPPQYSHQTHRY
Sequence of CDK8/CycC (P24863 whole entry partner): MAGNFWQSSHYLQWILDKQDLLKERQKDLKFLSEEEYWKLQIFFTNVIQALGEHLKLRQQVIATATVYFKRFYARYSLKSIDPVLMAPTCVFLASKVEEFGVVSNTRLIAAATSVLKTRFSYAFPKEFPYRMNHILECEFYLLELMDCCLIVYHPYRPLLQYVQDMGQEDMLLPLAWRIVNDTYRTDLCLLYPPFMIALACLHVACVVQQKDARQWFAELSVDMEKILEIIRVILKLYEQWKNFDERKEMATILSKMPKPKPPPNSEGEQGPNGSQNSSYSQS

COT = biological target: T3, COT (Homo sapiens, UniProt P41279); assay: ProQinase 33PanQinase selectivity profiling; format: biochemical; conditions: 100 nM, relative to control, read-out: Residual activity (%)
T3 construct: purchased ProQinase GmbH

CDK6/CycD1 = CDK6/CycD1 (Homo sapiens, UniProt Q00534); assay: ProQinase 33PanQinase selectivity profiling; format: biochemical; conditions: 100 nM, relative to control, read-out: Residual activity (%)
ARK5 = ARK5 (Homo sapiens, UniProt O60285); assay: ProQinase 33PanQinase selectivity profiling; format: biochemical; conditions: 100 nM, relative to control, read-out: Residual activity (%)
Sequence of ARK5 (O60285 whole entry, the tested form may be a part): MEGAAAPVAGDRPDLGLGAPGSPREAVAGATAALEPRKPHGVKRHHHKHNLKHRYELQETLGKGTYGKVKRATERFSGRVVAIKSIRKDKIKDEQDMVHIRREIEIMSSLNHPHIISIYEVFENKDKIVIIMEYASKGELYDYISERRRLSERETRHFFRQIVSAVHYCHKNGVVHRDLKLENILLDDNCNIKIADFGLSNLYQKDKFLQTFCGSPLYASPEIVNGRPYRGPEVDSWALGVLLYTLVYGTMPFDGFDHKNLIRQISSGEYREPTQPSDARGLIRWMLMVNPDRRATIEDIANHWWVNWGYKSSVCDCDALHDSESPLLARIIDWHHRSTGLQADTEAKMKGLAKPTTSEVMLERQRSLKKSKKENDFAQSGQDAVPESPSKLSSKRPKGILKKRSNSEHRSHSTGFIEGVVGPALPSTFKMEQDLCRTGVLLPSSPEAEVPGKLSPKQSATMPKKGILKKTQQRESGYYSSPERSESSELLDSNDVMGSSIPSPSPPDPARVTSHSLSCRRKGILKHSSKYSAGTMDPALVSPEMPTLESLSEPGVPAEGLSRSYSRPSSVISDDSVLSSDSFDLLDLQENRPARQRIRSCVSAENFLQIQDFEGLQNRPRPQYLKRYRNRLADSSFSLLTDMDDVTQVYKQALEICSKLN

AKT1 aa106-480 = biological target: T4, AKT1 aa106-480 (Homo sapiens, UniProt P31749); assay: ProQinase 33PanQinase selectivity profiling; format: biochemical; conditions: 100 nM, relative to control, read-out: Residual activity (%)
T4 construct: AKT1 aa106-480; purchased ProQinase GmbH (Freiburg, Germany)

DYRK1B = DYRK1B (Homo sapiens, UniProt Q9Y463); assay: ProQinase 33PanQinase selectivity profiling; format: biochemical; conditions: 100 nM, relative to control, read-out: Residual activity (%)
ACV-R2A = biological target: T5, ACV-R2A (Homo sapiens, UniProt P27037); assay: ProQinase 33PanQinase selectivity profiling; format: biochemical; conditions: 100 nM, relative to control, read-out: Residual activity (%)
T5 construct: purchased ProQinase GmbH (Freiburg, Germany)

CDK2/CycE1 = CDK2/CycE1 (Homo sapiens, UniProt P24941); assay: ProQinase 33PanQinase selectivity profiling; format: biochemical; conditions: 100 nM, relative to control, read-out: Residual activity (%)
DMPK = DMPK (Homo sapiens, UniProt Q09013); assay: ProQinase 33PanQinase selectivity profiling; format: biochemical; conditions: 100 nM, relative to control, read-out: Residual activity (%)
CK2-alpha1 = CK2-alpha1 (Homo sapiens, UniProt P68400); assay: ProQinase 33PanQinase selectivity profiling; format: biochemical; conditions: 100 nM, relative to control, read-out: Residual activity (%)
ACK1 = biological target: T6, ACK1 (Homo sapiens, UniProt Q07912); assay: ProQinase 33PanQinase selectivity profiling; format: biochemical; conditions: 100 nM, relative to control, read-out: Residual activity (%)
T6 construct: purchased ProQinase GmbH (Freiburg, Germany)

CAMKK1 = CAMKK1 (Homo sapiens, UniProt Q8N5S9); assay: ProQinase 33PanQinase selectivity profiling; format: biochemical; conditions: 100 nM, relative to control, read-out: Residual activity (%)
Sequence of CAMKK1 (Q8N5S9 whole entry): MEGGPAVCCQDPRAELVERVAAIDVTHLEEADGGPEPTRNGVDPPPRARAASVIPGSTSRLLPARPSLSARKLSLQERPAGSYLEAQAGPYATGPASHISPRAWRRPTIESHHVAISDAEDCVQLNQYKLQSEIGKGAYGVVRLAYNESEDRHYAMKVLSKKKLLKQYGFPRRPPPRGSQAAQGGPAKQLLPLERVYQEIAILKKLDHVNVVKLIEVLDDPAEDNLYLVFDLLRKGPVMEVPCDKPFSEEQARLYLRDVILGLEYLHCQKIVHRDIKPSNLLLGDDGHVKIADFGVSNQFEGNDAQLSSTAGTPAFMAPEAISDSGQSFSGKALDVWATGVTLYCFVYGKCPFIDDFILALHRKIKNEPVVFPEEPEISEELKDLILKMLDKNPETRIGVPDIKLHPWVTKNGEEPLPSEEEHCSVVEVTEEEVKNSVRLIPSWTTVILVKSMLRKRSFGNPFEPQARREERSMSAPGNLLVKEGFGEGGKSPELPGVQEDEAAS

BUB1B = biological target: T7, BUB1B (Homo sapiens, UniProt O60566); assay: ProQinase 33PanQinase selectivity profiling; format: biochemical; conditions: 100 nM, relative to control, read-out: Residual activity (%)
T7 construct: purchased ProQinase GmbH
T7 sequence (O60566 whole entry): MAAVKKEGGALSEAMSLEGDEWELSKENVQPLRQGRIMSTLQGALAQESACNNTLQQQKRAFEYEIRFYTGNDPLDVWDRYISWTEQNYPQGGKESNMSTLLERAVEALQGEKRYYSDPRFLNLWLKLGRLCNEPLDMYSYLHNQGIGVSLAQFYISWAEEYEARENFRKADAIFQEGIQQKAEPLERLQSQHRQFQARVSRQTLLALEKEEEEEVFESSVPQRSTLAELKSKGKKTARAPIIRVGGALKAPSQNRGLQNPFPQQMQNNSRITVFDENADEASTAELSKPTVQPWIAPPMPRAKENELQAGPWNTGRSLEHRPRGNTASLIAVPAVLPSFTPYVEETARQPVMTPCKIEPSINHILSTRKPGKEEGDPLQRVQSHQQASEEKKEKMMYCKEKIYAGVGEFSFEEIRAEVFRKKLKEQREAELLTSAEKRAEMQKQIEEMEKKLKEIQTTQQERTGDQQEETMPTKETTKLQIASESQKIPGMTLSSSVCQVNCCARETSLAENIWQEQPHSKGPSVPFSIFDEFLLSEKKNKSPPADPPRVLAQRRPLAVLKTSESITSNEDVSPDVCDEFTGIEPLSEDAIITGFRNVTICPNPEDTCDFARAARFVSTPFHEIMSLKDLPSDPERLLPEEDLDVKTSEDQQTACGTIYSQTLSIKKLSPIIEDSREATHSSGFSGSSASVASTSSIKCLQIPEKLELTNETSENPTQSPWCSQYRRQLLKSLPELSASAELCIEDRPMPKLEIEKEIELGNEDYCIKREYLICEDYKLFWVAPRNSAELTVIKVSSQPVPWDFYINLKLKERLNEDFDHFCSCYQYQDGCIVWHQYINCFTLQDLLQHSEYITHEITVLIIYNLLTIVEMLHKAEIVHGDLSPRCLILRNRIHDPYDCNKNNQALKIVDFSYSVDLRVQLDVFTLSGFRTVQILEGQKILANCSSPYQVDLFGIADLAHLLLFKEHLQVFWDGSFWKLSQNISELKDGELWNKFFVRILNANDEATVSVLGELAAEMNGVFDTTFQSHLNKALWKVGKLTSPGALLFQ

CK1-gamma2 = CK1-gamma2 (Homo sapiens, UniProt P78368); assay: ProQinase 33PanQinase selectivity profiling; format: biochemical; conditions: 100 nM, relative to control
Sequence of CK1-gamma2 (P78368 whole entry): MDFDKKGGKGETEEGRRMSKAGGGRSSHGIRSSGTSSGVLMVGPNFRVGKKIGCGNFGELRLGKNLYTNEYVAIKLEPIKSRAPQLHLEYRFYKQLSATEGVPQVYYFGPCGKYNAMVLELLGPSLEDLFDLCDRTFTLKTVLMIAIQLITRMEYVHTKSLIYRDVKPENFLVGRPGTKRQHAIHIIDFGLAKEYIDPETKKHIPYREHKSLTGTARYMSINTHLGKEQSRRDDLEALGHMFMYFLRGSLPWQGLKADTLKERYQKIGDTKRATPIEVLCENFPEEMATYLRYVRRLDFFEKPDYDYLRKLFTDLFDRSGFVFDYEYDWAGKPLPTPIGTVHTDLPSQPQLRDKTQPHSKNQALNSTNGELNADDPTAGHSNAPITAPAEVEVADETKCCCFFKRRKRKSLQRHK

BMX = biological target: T8, BMX (Homo sapiens, UniProt P51813); assay: ProQinase 33PanQinase selectivity profiling; format: biochemical; conditions: 100 nM, relative to control, read-out: Residual activity (%)
T8 construct: purchased ProQinase GmbH
T8 sequence (P51813 whole entry): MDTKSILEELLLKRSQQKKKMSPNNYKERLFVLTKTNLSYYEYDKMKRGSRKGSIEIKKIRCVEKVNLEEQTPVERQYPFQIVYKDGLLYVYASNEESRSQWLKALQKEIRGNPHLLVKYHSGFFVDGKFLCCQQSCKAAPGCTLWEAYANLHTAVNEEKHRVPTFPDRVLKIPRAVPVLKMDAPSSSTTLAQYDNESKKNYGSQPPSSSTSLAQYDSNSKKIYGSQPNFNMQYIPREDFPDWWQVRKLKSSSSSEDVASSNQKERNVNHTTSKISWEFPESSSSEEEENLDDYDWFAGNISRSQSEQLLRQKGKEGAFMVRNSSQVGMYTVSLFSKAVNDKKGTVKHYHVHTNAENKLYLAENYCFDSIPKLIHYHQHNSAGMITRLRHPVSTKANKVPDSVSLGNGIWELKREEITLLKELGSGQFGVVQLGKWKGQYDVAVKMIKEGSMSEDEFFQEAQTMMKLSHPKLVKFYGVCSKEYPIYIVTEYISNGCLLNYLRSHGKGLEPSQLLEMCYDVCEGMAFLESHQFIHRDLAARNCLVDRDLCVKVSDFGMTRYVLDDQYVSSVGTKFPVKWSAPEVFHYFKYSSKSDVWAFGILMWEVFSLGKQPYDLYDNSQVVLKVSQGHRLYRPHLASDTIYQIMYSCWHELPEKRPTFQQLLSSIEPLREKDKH

CHK1 = CHK1 (Homo sapiens, UniProt O14757); assay: ProQinase 33PanQinase selectivity profiling; format: biochemical; conditions: 100 nM, relative to control, read-out: Residual activity (%)
DYRK4 = DYRK4 (Homo sapiens, UniProt Q9NR20); assay: biochemical; conditions: read-out: Residual activity (%)
DNA-PK = DNA-PK (Homo sapiens, UniProt P78527); assay: ProQinase 33PanQinase selectivity profiling; format: biochemical; conditions: 100 nM, relative to control, read-out: Residual activity (%)
ACV-R1B = biological target: T9, ACV-R1B (Homo sapiens, UniProt P36896); assay: ProQinase 33PanQinase selectivity profiling; format: biochemical; conditions: 100 nM, relative to control, read-out: Residual activity (%)
T9 construct: purchased ProQinase GmbH (Freiburg, Germany)

ACV-R1 = ACV-R1 (Homo sapiens, UniProt Q04771); assay: ProQinase 33PanQinase selectivity profiling; format: biochemical; conditions: 100 nM, relative to control, read-out: Residual activity (%)
CAMK1D = CAMK1D (Homo sapiens, UniProt Q8IU85); assay: ProQinase 33PanQinase selectivity profiling; format: biochemical; conditions: 100 nM, relative to control, read-out: Residual activity (%)
B-RAF V600E = B-RAF V600E (Homo sapiens, UniProt P15056, V600E); assay: ProQinase 33PanQinase selectivity profiling; format: biochemical; conditions: 100 nM, relative to control, read-out: Residual activity (%)
Sequence of B-RAF V600E (P15056 whole entry V600E): as the sequence (P15056 whole entry) above, with V600E counted along it

BRSK1 = BRSK1 (Homo sapiens, UniProt Q8TDC3); assay: ProQinase 33PanQinase selectivity profiling; format: biochemical; conditions: 100 nM, relative to control, read-out: Residual activity (%)
CSK = CSK (Homo sapiens, UniProt P41240); assay: ProQinase 33PanQinase selectivity profiling; format: biochemical; conditions: 100 nM, relative to control, read-out: Residual activity (%)
EPHA3 = EPHA3 (Homo sapiens, UniProt P29320); assay: ProQinase 33PanQinase selectivity profiling; format: biochemical; conditions: 100 nM, relative to control, read-out: Residual activity (%)
EGF-R = EGF-R (Homo sapiens, UniProt P00533); assay: ProQinase 33PanQinase selectivity profiling; format: biochemical; conditions: 100 nM, relative to control, read-out: Residual activity (%)
ACV-RL1 = biological target: T10, ACV-RL1 (Homo sapiens, UniProt P37023); assay: ProQinase 33PanQinase selectivity profiling; format: biochemical; conditions: 100 nM, relative to control, read-out: Residual activity (%)
T10 construct: purchased ProQinase GmbH (Freiburg, Germany)

BMPR1A = biological target: T11, BMPR1A (Homo sapiens, UniProt P36894); assay: ProQinase 33PanQinase selectivity profiling; format: biochemical; conditions: 100 nM, relative to control, read-out: Residual activity (%)
T11 construct: purchased ProQinase GmbH

ASK1 = ASK1 (Homo sapiens, UniProt Q99683); assay: ProQinase 33PanQinase selectivity profiling; format: biochemical; conditions: 100 nM, relative to control, read-out: Residual activity (%)
CDK6/CycD3 = CDK6/CycD3 (Homo sapiens, UniProt Q00534); assay: ProQinase 33PanQinase selectivity profiling; format: biochemical; conditions: 100 nM, relative to control, read-out: Residual activity (%)
ABL1 = ABL1 (Homo sapiens, UniProt P00519); assay: ProQinase 33PanQinase selectivity profiling; format: biochemical; conditions: 100 nM, relative to control, read-out: Residual activity (%)

COc1ccc(OC)c(CCC(=O)Nc2cc(-c3nc(SC)[nH]c3-c3ccc(F)cc3)ccn2)c1 [11b, 3-(2,5-Dimethoxyphenyl)-N-(4-(5-(4-fluorophenyl)-2-(methylthio)-1H-imidazol-4-yl)-pyridin-2-yl)-propanamide]
remaining activity at 0.1 µM (CDK9/CycK): 103%
remaining activity at 0.1 µM (Aurora-C): 93%
remaining activity at 0.1 µM (CLK4): 95%
remaining activity at 0.1 µM (CDK1/CycE1): 97%
remaining activity at 0.1 µM (B-RAF): 91%
remaining activity at 0.1 µM (DAPK1): 96%
remaining activity at 0.1 µM (CAMK2B): 103%
remaining activity at 0.1 µM (CAMK2D): 96%
remaining activity at 0.1 µM (AXL): 104%
remaining activity at 0.1 µM (CDK1/CycB1): 95%
remaining activity at 0.1 µM (CDK2/CycA2): 87%
remaining activity at 0.1 µM (DYRK2): 99%
remaining activity at 0.1 µM (CDK8/CycC): 90%
remaining activity at 0.1 µM (COT): 111%
remaining activity at 0.1 µM (CDK6/CycD1): 105%
remaining activity at 0.1 µM (ARK5): 88%
remaining activity at 0.1 µM (AKT1 aa106-480): 90%
remaining activity at 0.1 µM (DYRK1B): 101%
remaining activity at 0.1 µM (ACV-R2A): 98%
remaining activity at 0.1 µM (CDK2/CycE1): 99%
remaining activity at 0.1 µM (DMPK): 103%
remaining activity at 0.1 µM (CK2-alpha1): 97%
remaining activity at 0.1 µM (ACK1): 96%
remaining activity at 0.1 µM (CAMKK1): 99%
remaining activity at 0.1 µM (BUB1B): 102%
Residual activity (%) (CK1-gamma2): unaffected
remaining activity at 0.1 µM (CK1-gamma2; read-out: Residual activity (%)): 91%
remaining activity at 0.1 µM (BMX): 98%
remaining activity at 0.1 µM (CHK1): 92%
remaining activity at 0.1 µM (DYRK4): 100%
remaining activity at 0.1 µM (DNA-PK): 95%
remaining activity at 0.1 µM (ACV-R1B): 101%
remaining activity at 0.1 µM (ACV-R1): 95%
remaining activity at 0.1 µM (CAMK1D): 78%
remaining activity at 0.1 µM (B-RAF V600E): 102%
remaining activity at 0.1 µM (BRSK1): 89%
remaining activity at 0.1 µM (CSK): 101%
remaining activity at 0.1 µM (EPHA3): 97%
remaining activity at 0.1 µM (EGF-R): 113%
remaining activity at 0.1 µM (ACV-RL1): 99%
remaining activity at 0.1 µM (BMPR1A): 102%
remaining activity at 0.1 µM (ASK1): 93%
remaining activity at 0.1 µM (CDK6/CycD3): 97%
remaining activity at 0.1 µM (ABL1): 100%
